Usually LC50 stands for the concentration lethal to half of the exposed cells or organisms.

Results on 29 compounds are retold here after patent US20240150356A1, “Pyrimidine amide compounds and use thereof” (ALPHALA CO., LTD., priority 2019, published 2024).

Where only a bound is given, the exact number is not on record here.

One experiment deals with Hep3B cells (hepatocellular carcinoma cell line). The experiment can be described thus: In vitro MTS cell viability assay (NCI-60 methodology), Hep3B. In kind it is cell-based. The conditions noted are these: Homo sapiens, 48 h, Table 1, MTS, 2 days drug incubation, 50% reduction vs time zero, read-out: Hep3B LC50. The procedure, abridged: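 Following NCI-60 method, MTS viability of Hep3B measured 24 h after plating (time zero) and after a further 2-day exposure to five concentrations (2-fold series). LC50 defined where [(Ti−Tz)/Tz]×100 = −50.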
A general note: Formazan colour is commonly taken as a measure of viable cells.
On to `Cn1ncc2c(NC(=O)c3ccc([N+](=O)[O-])s3)nc(-c3ccccc3OC(F)(F)F)nc21` [Compound 1-8, N-(1-methyl-6-(2-(trifluoromethoxy)phenyl)-1H-pyrazolo[3,4-d]pyrimidin-4-yl)-5-nitrothiophene-2-carboxamide], for which the median lethal concentration (LC50) came to 2530 nM.

The experiment is the same for the next values; noted with them: Homo sapiens, 48 h, Table 2, MTS, 2 days drug incubation, 50% reduction vs time zero, read-out: Hep3B LC50.
As to `CC(C)n1ncc2c(-c3ccc(OC(F)(F)F)cc3)nc(NC(=O)c3ccc([N+](=O)[O-])s3)nc21` [Compound 2-3, N-(1-isopropyl-4-(4-(trifluoromethoxy)phenyl)-1H-pyrazolo[3,4-d]pyrimidin-6-yl)-5-nitrothiophene-2-carboxamide], the LC50 is 4020 nM.

The experiment is the same for the next values; noted with them: Homo sapiens, 48 h, Table 4, MTS, 2 days drug incubation, 50% reduction vs time zero, read-out: Hep3B LC50.
Regarding `O=C(Nc1nc(-c2ccc(Cl)c(F)c2)nc2c(-c3ccccc3)csc12)c1ccc([N+](=O)[O-])s1` [Compound 4-16, N-(2-(4-chloro-3-fluorophenyl)-7-phenylthieno[3,2-d]pyrimidin-4-yl)-5-nitrothiophene-2-carboxamide], the LC50 worked out at 560 nM. With `Cc1csc2c(NC(=O)c3ccc([N+](=O)[O-])s3)nc(-c3cc(C(F)(F)F)cc(C(F)(F)F)c3)nc12` [Compound 4-6, N-(2-(3,5-bis(trifluoromethyl)phenyl)-7-methylthieno[3,2-d]pyrimidin-4-yl)-5-nitrothiophene-2-carboxamide], the LC50 is 420 nM. For `O=C(Nc1nc(-c2cc(C(F)(F)F)ccc2F)nc2c(-c3ccccc3)csc12)c1ccc([N+](=O)[O-])s1` [Compound 4-17, N-(2-(2-fluoro-5-(trifluoromethyl)phenyl)-7-phenylthieno[3,2-d]pyrimidin-4-yl)-5-nitrothiophene-2-carboxamide], the LC50 is 860 nM. As to `Cc1csc2c(NC(=O)c3ccc([N+](=O)[O-])s3)nc(-c3ccc(C(F)(F)F)cc3F)nc12` [Compound 4-14, N-(2-(2-fluoro-4-(trifluoromethyl)phenyl)-7-methylthieno[3,2-d]pyrimidin-4-yl)-5-nitrothiophene-2-carboxamide], the LC50 came out at 1350 nM.

The experiment is the same for the next values; noted with them: Homo sapiens, 48 h, Table 5, MTS, 2 days drug incubation, 50% reduction vs time zero, read-out: Hep3B LC50.
For the compound `C[C@@H]1CN(c2nc(NC(=O)c3ccc([N+](=O)[O-])s3)c3cnn(-c4ccccc4)c3n2)C[C@H](C)O1` [Compound 5-8, N-(6-((2S,6R)-2,6-dimethylmorpholino)-1-phenyl-1H-pyrazolo[3,4-d]pyrimidin-4-yl)-5-nitrothiophene-2-carboxamide], the LC50 was determined as 1710 nM. For the compound `O=C(Nc1nc(-c2ccc(Cl)s2)nc2c1cnn2-c1ccccc1)c1ccc([N+](=O)[O-])s1` [Compound 5-19, N-(6-(5-chlorothiophen-2-yl)-1-phenyl-1H-pyrazolo[3,4-d]pyrimidin-4-yl)-5-nitrothiophene-2-carboxamide], the LC50 came out at 170 nM. As to `CN(C)c1cccc(-c2nc(NC(=O)c3ccc([N+](=O)[O-])s3)c3cnn(-c4ccccc4)c3n2)c1` [Compound 5-41, N-(6-(3-(dimethylamino)phenyl)-1-phenyl-1H-pyrazolo[3,4-d]pyrimidin-4-yl)-5-nitrothiophene-2-carboxamide], the LC50 was 450 nM.

Staying with this experiment, now noted: Homo sapiens, 48 h, Table 6, MTS, 2 days drug incubation, 50% reduction vs time zero, read-out: Hep3B LC50.
`COCCOc1ccc(-c2nc(NC(=O)c3ccc([N+](=O)[O-])s3)c3cnn(-c4ccc(C)cc4)c3n2)cn1` [Compound 6-12, N-(6-(6-(2-methoxyethoxy)pyridin-3-yl)-1-(p-tolyl)-1H-pyrazolo[3,4-d]pyrimidin-4-yl)-5-nitrothiophene-2-carboxamide]: the LC50 stood at 260 nM. Regarding `COc1ccc(-c2nc(NC(=O)c3ccc([N+](=O)[O-])s3)c3cnn(-c4ccc(C)cc4)c3n2)cn1` [Compound 6-6, N-(6-(6-methoxypyridin-3-yl)-1-(p-tolyl)-1H-pyrazolo[3,4-d]pyrimidin-4-yl)-5-nitrothiophene-2-carboxamide], the LC50 came out at 400 nM. `CCC(C)(C)c1ccc(-c2nc(NC(=O)c3ccc([N+](=O)[O-])s3)c3cnn(-c4ccc(OC(F)(F)F)cc4)c3n2)cc1` [Compound 6-87]: the LC50 is above 2000 nM. With `C[C@@H]1CN(c2nc(NC(=O)c3ccc([N+](=O)[O-])s3)c3cnn(-c4ccc(F)cc4)c3n2)C[C@H](C)O1` [Compound 6-99, N-(6-((2S,6R)-2,6-dimethylmorpholino)-1-(4-fluorophenyl)-1H-pyrazolo[3,4-d]pyrimidin-4-yl)-5-nitrothiophene-2-carboxamide], the median lethal concentration (LC50) is 610 nM. The same measure, in the same setting: as for `O=C(Nc1nc(-c2ccc(C(F)(F)F)cc2F)nc2c1cnn2-c1cccc(Cl)c1)c1ccc([N+](=O)[O-])s1` [Compound 6-41, N-(1-(3-chlorophenyl)-6-(2-fluoro-4-(trifluoromethyl)phenyl)-1H-pyrazolo[3,4-d]pyrimidin-4-yl)-5-nitrothiophene-2-carboxamide], the figure is 320 nM; as for `O=C(Nc1nc(-c2cccc(Cl)c2)nc2c1cnn2-c1cccc(Cl)c1)c1ccc([N+](=O)[O-])s1` [Compound 6-37, N-(1,6-bis(3-chlorophenyl)-1H-pyrazolo[3,4-d]pyrimidin-4-yl)-5-nitrothiophene-2-carboxamide], 230 nM. As for `Cc1ccc(-n2ncc3c(NC(=O)c4ccc([N+](=O)[O-])s4)nc(-c4ccc5c(c4)OCO5)nc32)cc1` [Compound 6-9], the LC50 was determined as 400 nM. Regarding `CC1CCCN(c2nc(NC(=O)c3ccc([N+](=O)[O-])s3)c3cnn(-c4ccc(C(C)(C)C)cc4)c3n2)C1` (centres unmarked) [Compound 6-64, N-(1-(4-(tert-butyl)phenyl)-6-(3-methylpiperidin-1-yl)-1H-pyrazolo[3,4-d]pyrimidin-4-yl)-5-nitrothiophene-2-carboxamide], the LC50 came out at 1070 nM. Still for that read-out and setting: under `CCOCCOc1ccc(-c2nc(NC(=O)c3ccc([N+](=O)[O-])s3)c3cnn(-c4ccc(F)cc4)c3n2)cn1` [Compound 6-136, N-(6-(6-(2-ethoxyethoxy)pyridin-3-yl)-1-(4-fluorophenyl)-1H-pyrazolo[3,4-d]pyrimidin-4-yl)-5-nitrothiophene-2-carboxamide] stands 260 nM; under `CCOCCOc1ccc(-c2nc(NC(=O)c3ccc([N+](=O)[O-])s3)c3cnn(-c4ccc(Cl)cc4)c3n2)cn1` [Compound 6-52, N-(1-(4-chlorophenyl)-6-(6-(2-ethoxyethoxy)pyridin-3-yl)-1H-pyrazolo[3,4-d]pyrimidin-4-yl)-5-nitrothiophene-2-carboxamide], 220 nM; under `O=C(Nc1nc(N2CCC(F)(F)C2)nc2c1cnn2-c1ccc(F)cc1)c1ccc([N+](=O)[O-])s1` [Compound 6-97, N-(6-(3,3-difluoropyrrolidin-1-yl)-1-(4-fluorophenyl)-1H-pyrazolo[3,4-d]pyrimidin-4-yl)-5-nitrothiophene-2-carboxamide], 570 nM.

Staying with this experiment, now noted: Homo sapiens, 48 h, Table 7, MTS, 2 days drug incubation, 50% reduction vs time zero, read-out: Hep3B LC50.
`O=C(Nc1nc(-c2ccc(F)nc2)nc2c1cnn2-c1ccc(F)cc1F)c1ccc([N+](=O)[O-])s1` [Compound 7-13]: the LC50 worked out at 130 nM.

Still in this experiment, the particulars now being: Homo sapiens, 48 h, Table 9, MTS, 2 days drug incubation, 50% reduction vs time zero, read-out: Hep3B LC50.
`CCOCCOCCOC(=O)N1CCC(n2ncc3c(NC(=O)c4ccc([N+](=O)[O-])s4)nc(-c4ccc(Cl)cc4)nc32)CC1` [Compound 9-11, 2-(2-ethoxyethoxy)ethyl 4-(6-(4-chlorophenyl)-4-(5-nitrothiophene-2-carboxamido)-1H-pyrazolo[3,4-d]pyrimidin-1-yl)piperidine-1-carboxylate]: the LC50 is above 1250 nM.

Still in this experiment, the particulars now being: Homo sapiens, 48 h, Table 10, MTS, 2 days drug incubation, 50% reduction vs time zero, read-out: Hep3B LC50.
In the case of `O=C(Nc1nc(-c2cc(Cl)ccc2F)nc2c1cnn2C1CCCCC1)c1ccc([N+](=O)[O-])s1` [Compound 10-47, N-(6-(5-chloro-2-fluorophenyl)-1-cyclohexyl-1H-pyrazolo[3,4-d]pyrimidin-4-yl)-5-nitrothiophene-2-carboxamide], the LC50 came to 630 nM. Consider `O=C(Nc1nc(N2CCC[C@H]2CO)nc2c1cnn2C1CCCCC1)c1ccc([N+](=O)[O-])s1` [Compound 10-3, (S)—N-(1-cyclohexyl-6-(2-(hydroxymethyl)pyrrolidin-1-yl)-1H-pyrazolo[3,4-d]pyrimidin-4-yl)-5-nitrothiophene-2-carboxamide], for which the LC50 was above 5000 nM. Take `O=C(Nc1nc(-c2ccc(Cl)cc2Cl)nc2c1cnn2C1CCCCC1)c1ccc([N+](=O)[O-])s1` [Compound 10-42]: the LC50 was above 1250 nM. Turning to `CC1(C)CCC(n2ncc3c(NC(=O)c4ccc([N+](=O)[O-])s4)nc(-c4ccc(F)nc4)nc32)CC1` [Compound 10-62, N-(1-(4,4-dimethylcyclohexyl)-6-(6-fluoropyridin-3-yl)-1H-pyrazolo[3,4-d]pyrimidin-4-yl)-5-nitrothiophene-2-carboxamide], the LC50 stood at 710 nM.

`COC(=O)c1ccc(-c2nc(NC(=O)c3ccc([N+](=O)[O-])s3)c3cnn(C4CC(C)CC(C)C4)c3n2)cc1` (centres unmarked) [Compound 10-71, methyl 4-(1-(3,5-dimethylcyclohexyl)-4-(5-nitrothiophene-2-carboxamido)-1H-pyrazolo[3,4-d]pyrimidin-6-yl)benzoate]: the LC50 stood at 690 nM. Regarding `O=C(Nc1nc(-c2ccc(Cl)c(Cl)c2)nc2c1cnn2C1CCCCC1)c1ccc([N+](=O)[O-])s1` [Compound 10-43, N-(1-cyclohexyl-6-(3,4-dichlorophenyl)-1H-pyrazolo[3,4,d]pyrimidin-4-yl)-5-nitrothiophene-2-carboxamide], the LC50 is 770 nM.

With `COCc1ccc(-c2nc(NC(=O)c3ccc([N+](=O)[O-])s3)c3cnn(C4CCCCC4)c3n2)cc1` [Compound 10-30, N-(1-cyclohexyl-6-(4-(methoxymethyl)phenyl)-1H-pyrazolo[3,4-d]pyrimidin-4-yl)-5-nitrothiophene-2-carboxamide], the LC50 turned out to be 840 nM.
